Patent US20090209536A1, “AMINOQUINAZOLINE CANNABINOID RECEPTOR MODULATORS FOR TREATMENT OF DISEASE” (KALYPSYS, INC., priority 2007, published 2009)

How the values were obtained:
[1] = target: T1, human cannabinoid receptor type 2 (Homo sapiens, UniProt P34972); assay: Human CB2 Radioligand Binding Assay; conditions: competition with [3H] CP-55,940; membranes from stably transfected CHO CB2 cells; read-out: CB2 Ligand Binding Asssay EC50
T1 construct: expressed in transfected cells; membrane preparation
T1 sequence (P34972 whole entry): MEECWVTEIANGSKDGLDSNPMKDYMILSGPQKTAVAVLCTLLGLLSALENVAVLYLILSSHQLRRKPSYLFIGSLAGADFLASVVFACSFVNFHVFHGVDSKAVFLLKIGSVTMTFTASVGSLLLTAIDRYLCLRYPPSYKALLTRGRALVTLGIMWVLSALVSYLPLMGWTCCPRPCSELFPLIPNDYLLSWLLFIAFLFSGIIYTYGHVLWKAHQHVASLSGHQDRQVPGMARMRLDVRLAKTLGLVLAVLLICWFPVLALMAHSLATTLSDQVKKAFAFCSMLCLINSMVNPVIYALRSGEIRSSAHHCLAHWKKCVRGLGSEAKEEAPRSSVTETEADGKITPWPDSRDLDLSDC
Outline: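 Filtration competition binding on membranes from CHO cells stably expressing human CB2, with [3H]CP-55,940 at its lot-specific Kd, in 50 mM Tris-HCl pH 7.4, EGTA, MgCl2, 5 mg/ml BSA, 1% DMSO; 90 min at 30° C. Compounds at 10 uM single point or dose-response; bound radioactivity by scintillation, 100 nM CP-55,940 as 100% efficacy.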

[2] = target: T2, human cannabinoid receptor type 1 (Homo sapiens, UniProt P21554); assay: Human CB1 Radioligand Binding Assay (basis of selectivity, CB2 vs. CB1); conditions: CB1: HEK 293 EBNA cells expressing human CB1; CB2: CHO CB2 membranes
T2 construct: purchased Perkin Elmer RBHCB1M; host or cells: HEK 293 EBNA cells
T2 sequence (P21554 whole entry): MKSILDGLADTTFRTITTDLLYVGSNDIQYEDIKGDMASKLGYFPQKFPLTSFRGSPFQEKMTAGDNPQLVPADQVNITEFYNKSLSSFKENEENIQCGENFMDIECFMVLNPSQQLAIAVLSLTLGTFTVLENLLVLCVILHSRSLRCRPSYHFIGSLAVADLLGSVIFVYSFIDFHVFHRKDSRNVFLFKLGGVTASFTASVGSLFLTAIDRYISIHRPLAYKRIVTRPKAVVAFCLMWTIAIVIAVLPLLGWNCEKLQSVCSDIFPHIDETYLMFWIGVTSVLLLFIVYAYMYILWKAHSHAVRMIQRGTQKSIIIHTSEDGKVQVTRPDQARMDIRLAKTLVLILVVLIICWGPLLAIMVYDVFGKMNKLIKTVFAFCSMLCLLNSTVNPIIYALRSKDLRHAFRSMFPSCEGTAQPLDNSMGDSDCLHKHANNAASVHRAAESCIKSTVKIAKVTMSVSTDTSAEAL
Description: 2. Human CB1 Radioligand Binding Assay
The incubation buffer was composed of 50 mM Tris-HCl pH 7.4, 2.5 mM EDTA, 5 mM MgCl2, 5.0 mg/ml fatty acid free BSA and the wash buffer was composed of 50 mM Tris-HCl pH 7.4, 2.5 mM EDTA, 5 mM MgCl2, 0.5 mg/ml fatty acid free BSA.

| Compound | EC50 [1] | Selectivity, CB2 vs. CB1 [2] |
| --- | --- | --- |
| Fc1ccccc1-c1nc(N2CCCC2)c2c(Cl)cccc2n1 [Example 239, 5-Chloro-2-(2-fluorophenyl)-4-(pyrrolidin-1-yl)quinazoline] | < 1 µM | + (+ indicates > 10−fold) |
| CCOC(=O)N1CCN(c2nc(-c3ccccc3Cl)nc3cccc(C(F)(F)F)c23)CC1 [Example 241, Ethyl 4-(2-(2-chlorophenyl)-5-(trifluoromethyl)quinazolin-4-yl)piperazine-1-carboxylate] | < 1 µM | + (+ indicates > 10−fold) |
| FC(F)(F)c1cccc2nc(-c3ccccc3Cl)nc(N3CCCC3)c12 [Example 242, 2-(2-Chlorophenyl)-4-(pyrrolidin-1-yl)-5-(trifluoromethyl)quinazoline] | < 1 µM | + (+ indicates > 10−fold) |
| CCOC(=O)N1CCN(c2nc(-c3ccccc3Cl)nc3cccc(OC)c23)CC1 [Example 244, Ethyl 4-(2-(2-chlorophenyl)-5-methoxyquinazolin-4-yl)piperazine-1-carboxylate] | < 1 µM | + (+ indicates > 10−fold) |
| COc1cccc2nc(-c3ccccc3Cl)nc(N3CCCC3)c12 [Example 245, 2-(2-Chlorophenyl)-5-methoxy-4-(pyrrolidin-1-yl)quinazoline] | < 1 µM | + (+ indicates > 10−fold) |
| Fc1cccc2nc(-c3ccccc3Cl)nc(N3CCCC3)c12 [Example 248, 2-(2-Chlorophenyl)-5-fluoro-4-(pyrrolidin-1-yl)quinazoline] | < 1 µM | + (+ indicates > 10−fold) |
| COc1ccc2nc(-c3ccc(C(C)(C)C)cc3)nc(N3CCN(C(C)=O)CC3)c2c1 [Example 249, 1-(4-(2-(4-tert-Butylphenyl)-6-methoxyquinazolin-4-yl)piperazin-1-yl)ethanone] | < 1 µM | + (+ indicates > 10−fold) |
| CCOC(=O)N1CCN(c2nc(-c3ccc(C(C)(C)C)cc3)nc3ccc(OC)cc23)CC1 [Example 250, Ethyl 4-(2-(4-tert-butylphenyl)-6-methoxyquinazolin-4-yl)piperazine-1-carboxylate] | < 1 µM | + (+ indicates > 10−fold) |
| COc1ccc2nc(-c3ccc(C(C)(C)C)cc3)nc(N3CCCC3)c2c1 [Example 251, 2-(4-tert-Butylphenyl)-6-methoxy-4-(pyrrolidin-1-yl)quinazoline] | < 1 µM | + (+ indicates > 10−fold) |
| CCOC(=O)N1CCN(c2nc(-c3ccc(C(C)(C)C)cc3)nc3ccc(Cl)cc23)CC1 [Example 252, Ethyl 4-(2-(4-tert-butylphenyl)-6-chloroquinazolin-4-yl)piperazine-1-carboxylate] | > 1 µM | − (− indicates ≦ 10−fold) |
| CC(=O)N1CCN(c2nc(-c3ccc(Cl)cc3)nc3ccc(Cl)cc23)CC1 [Example 253, 1-(4-(6-Chloro-2-(4-chlorophenyl)quinazolin-4-yl)piperazin-1-yl)ethanone] | > 1 µM | − (− indicates ≦ 10−fold) |
| CCOC(=O)N1CCN(c2nc(-c3ccccc3Cl)nc3cccc(C)c23)CC1 [Example 255, Ethyl 4-(2-(2-chlorophenyl)-5-methylquinazolin-4-yl)piperazine-1-carboxylate] | < 1 µM | + (+ indicates > 10−fold) |
| Cc1cccc2nc(-c3ccccc3Cl)nc(N3CCCC3)c12 [Example 256, 2-(2-Chlorophenyl)-5-methyl-4-(pyrrolidin-1-yl)quinazoline] | < 1 µM | + (+ indicates > 10−fold) |
| Cn1ccnc1N1CCN(c2nc(-c3ccccc3Cl)nc3ccccc23)CC1 [Example 257, 2-(2-Chlorophenyl)-4-(4-(1-methyl-1H-imidazol-2-yl)piperazin-1-yl)quinazoline] | > 1 µM | − (− indicates ≦ 10−fold) |
| Clc1ccccc1-c1nc(NCCCn2ccnc2)c2ccccc2n1 [Example 258, N-(3-(1H-Imidazol-1-yl)propyl)-2-(2-chlorophenyl)quinazolin-4-amine] | > 1 µM | − (− indicates ≦ 10−fold) |
| CN(CCCn1ccnc1)c1nc(-c2ccccc2Cl)nc2ccccc12 [Example 259, N-(3-(1H-Imidazol-1-yl)propyl)-2-(2-chlorophenyl)-N-methylquinazolin-4-amine] | > 1 µM | − (− indicates ≦ 10−fold) |
| CCC(=O)N1CCN(c2nc(-c3ccccc3Cl)nc3cccc(Cl)c23)CC1 [Example 260, 1-(4-(5-Chloro-2-(2-chlorophenyl)quinazolin-4-yl)piperazin-1-yl)propan-1-one] | < 1 µM | + (+ indicates > 10−fold) |
| O=C(c1ncc[nH]1)N1CCN(c2nc(-c3ccccc3Cl)nc3ccccc23)CC1 [Example 262, (4-(2-(2-Chlorophenyl)quinazolin-4-yl)piperazin-1-yl)(1H-imidazol-2-yl)methanone] | > 1 µM | − (− indicates ≦ 10−fold) |

The remaining lines, values ahead:

| EC50 [1] | Selectivity, CB2 vs. CB1 [2] | Compound |
| --- | --- | --- |
| < 1 µM | + (+ indicates > 10−fold) | CC(=O)N1CCN(c2nc(-c3ccccc3F)nc3cccc(Cl)c23)CC1 [Example 237, 1-(4-(5-Chloro-2-(2-fluorophenyl)quinazolin-4-yl)piperazin-1-yl)ethanone] |
| < 1 µM | + (+ indicates > 10−fold) | CCOC(=O)N1CCN(c2nc(-c3ccccc3F)nc3cccc(Cl)c23)CC1 [Example 238, Ethyl 4-(5-chloro-2-(2-fluorophenyl)quinazolin-4-yl)piperazine-1-carboxylate] |
| < 1 µM | + (+ indicates > 10−fold) | CC(=O)N1CCN(c2nc(-c3ccccc3Cl)nc3cccc(C(F)(F)F)c23)CC1 [Example 240, 1-(4-(2-(2-Chlorophenyl)-5-(trifluoromethyl)quinazolin-4-yl)piperazin-1-yl)ethanone] |
| < 1 µM | + (+ indicates > 10−fold) | COc1cccc2nc(-c3ccccc3Cl)nc(N3CCN(C(C)=O)CC3)c12 [Example 243, 1-(4-(2-(2-Chlorophenyl)-5-methoxyquinazolin-4-yl)piperazin-1-yl)ethanone] |
| < 1 µM | + (+ indicates > 10−fold) | CC(=O)N1CCN(c2nc(-c3ccccc3Cl)nc3cccc(F)c23)CC1 [Example 246, 1-(4-(2-(2-Chlorophenyl)-5-fluoroquinazolin-4-yl)piperazin-1-yl)ethanone] |
| < 1 µM | + (+ indicates > 10−fold) | CCOC(=O)N1CCN(c2nc(-c3ccccc3Cl)nc3cccc(F)c23)CC1 [Example 247, Ethyl 4-(2-(2-chlorophenyl)-5-fluoroquinazolin-4-yl)piperazine-1-carboxylate] |
| < 1 µM | − (− indicates ≦ 10−fold) | CC(=O)N1CCN(c2nc(-c3ccccc3Cl)nc3cccc(C)c23)CC1 [Example 254, 1-(4-(2-(2-Chlorophenyl)-5-methylquinazolin-4-yl)piperazin-1-yl)ethanone] |
| < 1 µM | + (+ indicates > 10−fold) | COC(=O)N1CCN(c2nc(-c3ccccc3Cl)nc3cccc(Cl)c23)CC1 [Example 261, Methyl 4-(5-chloro-2-(2-chlorophenyl)quinazolin-4-yl)piperazine-1-carboxylate] |
